Laboratory results from BindingDB's records for patent US20260028321 (Chong Kun Dang Pharmaceutical, 2026).

Assays:
Histone deacetylase 1 = Histone deacetylase 1 (Homo sapiens, UniProt Q13547); test: Inhibition of HDAC Enzyme Activity (In Vitro)
Procedure: (§1) In the HDAC1 assay, the test substance was treated at concentrations of 100, 1000, and 10000 nM, and in the HDAC6 assay, the test substance was treated at concentrations of 0.1, 1, 10, 100, and 1000 nM.

Histone deacetylase 6 = target: T1, Histone deacetylase 6 (Homo sapiens, UniProt Q9UBN7); test: Inhibition of HDAC Enzyme Activity (In Vitro)
T1 sequence (Q9UBN7 whole entry): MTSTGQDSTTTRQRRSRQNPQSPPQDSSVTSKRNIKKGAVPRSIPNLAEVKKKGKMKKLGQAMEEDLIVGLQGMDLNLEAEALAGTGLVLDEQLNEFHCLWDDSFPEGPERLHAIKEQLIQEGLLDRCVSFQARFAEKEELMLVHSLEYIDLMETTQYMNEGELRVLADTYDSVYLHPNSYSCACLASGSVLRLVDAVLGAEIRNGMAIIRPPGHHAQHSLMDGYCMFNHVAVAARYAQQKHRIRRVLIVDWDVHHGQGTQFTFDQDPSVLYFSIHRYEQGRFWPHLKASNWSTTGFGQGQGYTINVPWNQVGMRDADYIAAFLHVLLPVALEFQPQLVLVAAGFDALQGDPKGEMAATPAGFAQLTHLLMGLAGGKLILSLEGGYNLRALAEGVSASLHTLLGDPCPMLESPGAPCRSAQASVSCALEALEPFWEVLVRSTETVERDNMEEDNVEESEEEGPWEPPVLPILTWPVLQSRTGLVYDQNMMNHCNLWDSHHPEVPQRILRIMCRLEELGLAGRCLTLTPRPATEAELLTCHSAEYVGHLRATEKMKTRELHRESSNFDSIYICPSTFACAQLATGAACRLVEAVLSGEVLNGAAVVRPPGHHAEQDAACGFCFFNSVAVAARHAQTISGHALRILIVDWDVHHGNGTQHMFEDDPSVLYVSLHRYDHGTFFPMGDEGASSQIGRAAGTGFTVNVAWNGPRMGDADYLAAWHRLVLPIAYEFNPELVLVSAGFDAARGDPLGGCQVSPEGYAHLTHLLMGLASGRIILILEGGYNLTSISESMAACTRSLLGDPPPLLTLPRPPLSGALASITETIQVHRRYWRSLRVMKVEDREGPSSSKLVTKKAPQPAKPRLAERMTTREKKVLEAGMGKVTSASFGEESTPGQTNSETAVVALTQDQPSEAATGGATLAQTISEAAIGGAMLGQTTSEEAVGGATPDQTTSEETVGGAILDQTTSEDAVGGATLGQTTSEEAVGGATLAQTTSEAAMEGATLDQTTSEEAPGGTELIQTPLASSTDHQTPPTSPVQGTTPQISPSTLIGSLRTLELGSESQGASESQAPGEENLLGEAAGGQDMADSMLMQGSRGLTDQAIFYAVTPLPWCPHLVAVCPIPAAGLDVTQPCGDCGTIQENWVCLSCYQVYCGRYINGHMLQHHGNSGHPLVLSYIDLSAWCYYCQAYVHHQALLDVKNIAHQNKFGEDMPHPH
Procedure: as §1

Histone deacetylase 1, sequence (Q13547 whole entry): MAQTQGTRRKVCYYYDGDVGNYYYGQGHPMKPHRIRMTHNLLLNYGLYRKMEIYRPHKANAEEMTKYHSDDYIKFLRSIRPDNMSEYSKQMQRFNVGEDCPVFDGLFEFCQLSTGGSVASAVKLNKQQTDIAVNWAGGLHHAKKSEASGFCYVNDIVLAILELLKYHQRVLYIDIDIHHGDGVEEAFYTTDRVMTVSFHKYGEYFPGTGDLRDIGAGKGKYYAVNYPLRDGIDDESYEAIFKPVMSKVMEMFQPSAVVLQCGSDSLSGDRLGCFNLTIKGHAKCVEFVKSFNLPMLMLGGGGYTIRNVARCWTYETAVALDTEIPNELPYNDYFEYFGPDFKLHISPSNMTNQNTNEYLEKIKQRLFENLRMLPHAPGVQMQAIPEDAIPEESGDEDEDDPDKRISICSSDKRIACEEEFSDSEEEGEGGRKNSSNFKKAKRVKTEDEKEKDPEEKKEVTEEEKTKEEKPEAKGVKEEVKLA

IC50 (Histone deacetylase 1): > 10000 nM
IC50 (Histone deacetylase 6): 54 nM
Compound: CN1CCN(c2c(N(Cc3ccc(-c4nnc(C(F)F)o4)cc3F)c3cc(F)cc(-c4ccncc4)c3)c(=O)c2=O)CC1 [US20260028321, Compound 9]
